These results are taken from patent publication US11040959B2, “Diprovocims: a new and potent class of TLR agonists” (The Scripps Research Institute, priority 2016, dated 2021).

pEC50: −log10 of the molar value. Read-outs that look alike come from different tables or passages of the source.

Test [1] concerns differentiated human THP-1 cells. The test is described as follows: stimulated release of TNF-α from differentiated human THP-1 cells (ELISA, dose-response). The format is cell-based. The conditions noted are these: for EC50: read-out: EC50 (nM) (THP-1). On the procedure: A screening campaign was conducted with nearly 100,000 compounds [(a) Whitby et al., Acc. Chem. Res. 2012, 45:1698-1709; and (b) Boger et al., Angew. Chem. Int. Ed. 2003, 42:4138-4176], using a newly developed functional assay that measured the stimulated release of TNF-α from treated human THP-1 cells partially differentiated along the macrophage line [unpublished results of the inventors and co-workers]. […] The libraries screened in the efforts represent a unique compound collection populated by nontraditional compounds [(a) Whitby et al., Acc. Chem. Res. 2012, 45:1698-1709; and (b) Boger et al., Angew. Chem. Int. Ed. 2003, 42:4138-4176] designed to target protein-protein [(a) Shaginian et al., J. Am. Chem. Soc. 2009, 131:5564-5572; and (b) Whitby et al., J. Am. Chem. Soc. 2011, 133:10184-10194] or protein-DNA interactions [Stover et al., J. Am. Chem. Soc. 2009, 131:3342-3348] as well as the major enzyme classes [Otrubova et al., Bioorg. Med. Chem. Lett. 2014, 24:3807-3813].
Hits were confirmed in an ELISA assay for stimulated TNF-α release from human PMA differentiated THP-1 cells and this assay was used for establishing dose-response curves and measured EC50 values.
For orientation: In an ELISA, binding on a coated surface is turned into a signal by an enzyme label.

The next test has as its system mouse macrophages. Nature of the test: stimulated release of TNF-α from mouse macrophages. The format is cell-based. The settings on record: for pEC50: Mus musculus; for EC50: read-out: EC50 (nM) (mouse). The source says:
EC50 values are derived from dose-response curves for the stimulated release of TNF-α from differentiated THP-1 cells or mouse macrophages are shown beneath each appropriate structural formula of Compounds 8-12. Half maximal effective concentration (EC50) refers to the concentration of a drug, antibody or toxicant that induces a response halfway between the baseline and maximum after a specified exposure time. It is commonly used as a measure of a drug's potency.

[2] abbreviates: Homo sapiens, THP-1, running text, read-out: EC50, stimulated release of TNF-α from differentiated human THP-1 cells.
Where [3] appears, read: Macrophage, read-out: EC50, stimulated release of TNF-α from mouse macrophages.
Where [4] appears, read: Macrophage, Scheme 1, footnote b, read-out: EC50 TNF-α release from mouse macrophages.
The mark [5] stands for this setting: Homo sapiens, THP-1, Scheme 1, footnote a, read-out: EC50 TNF-α release from human THP-1 cells.

Regarding `O=C(N[C@H]1C[C@@H]1c1ccccc1)[C@@H]1CN(C(=O)c2ccc(C(=O)N3C[C@@H](C(=O)N[C@H]4C[C@@H]4c4ccccc4)[C@H](C(=O)N[C@H]4C[C@@H]4c4ccccc4)C3)cc2)C[C@H]1C(=O)N[C@H]1C[C@@H]1c1ccccc1` (racemic) [Compound 12, trans, trans-1,1′-Terephthaloylbis-(N^3,N^4-bis-(trans-2-phenylcyclopropyl)pyrrolidine-3,4-dicarboxamide)], the pEC50 (in general, the negative decadic logarithm of the EC50, by convention in mol/L) was 8.00 in test [1] (setting [2]) and 7.00 in the test with mouse macrophages (setting [3]). In test [1] (versus LPS or Pam3CSK4, side-by-side), the “efficacy of TNF-α release compared with reference agonist” value is given as “equally efficacious with LPS”.
Turning to `O=C(NCCc1ccc(F)cc1)[C@H]1CN(C(=O)c2ccc(C(=O)N3C[C@H](C(=O)NCCc4ccc(F)cc4)[C@@H](C(=O)NCCc4ccc(F)cc4)C3)cc2)C[C@@H]1C(=O)NCCc1ccc(F)cc1` (racemic) [Compound 69, 1,1′-Terephthaloylbis(N^3,N^4-bis(4-fluoro-phenethyl)-yrrolidine-trans-3,4-dicarboxamide)], in test [1] (setting [2]), the pEC50 is 7.00.
`O=C(NCCc1cccc(F)c1)[C@H]1CN(C(=O)c2ccc(C(=O)N3C[C@H](C(=O)NCCc4cccc(F)c4)[C@@H](C(=O)NCCc4cccc(F)c4)C3)cc2)C[C@@H]1C(=O)NCCc1cccc(F)c1` (racemic) [Compound 84, 1,1′-Terephthaloylbis(N^3,N^4-bis(3-fluoro-phenethyl)pyrrolidine-trans-3,4-dicarboxamide)]: the pEC50 in test [1] (Homo sapiens, THP-1, Table 5 footnote, racemates, TNF-α release from human differentiated THP-1 cells, read-out: EC50) was 6.00; in test [1] (setting [2]) it was 6.00. For the same molecule, the “fold less active (3- vs 4-fluorophenethylamide)” value in test [1] (human THP-1 cells, racemates) is on record as > 10 fold.
With `O=C(NCCc1ccccc1)[C@@H]1CN(C(=O)c2ccc(C(=O)N3C[C@@H](C(=O)NCCc4ccccc4)[C@H](C(=O)N[C@H]4C[C@@H]4c4ccccc4)C3)cc2)C[C@H]1C(=O)NCCc1ccccc1` (relative stereo) [Compound 9], the “activity in stimulating TNF-α release from human THP-1 cells (in words)” value in test [1] (tested up to 5 μM where stated) was “inactive”.
As to `O=C(NCCc1ccccc1)[C@@H]1CN(C(=O)c2ccc(C(=O)N3C[C@@H](C(=O)NCCc4ccccc4)[C@H](C(=O)N[C@H]4C[C@@H]4c4ccccc4)C3)cc2)C[C@H]1C(=O)N[C@H]1C[C@@H]1c1ccccc1` (stereo in doubt) [Compound 10, trans,trans-1, 1′-Terephthaloylbis(N^3-phenethyl-N^4-(trans-2-phenylcyclopropyl)pyrrolidine-3,4-dicarboxamide)], the pEC50 in test [1] (setting [2]) was 7.10.
Turning to `CCCCCCCCCCCCCCCCNC(=O)C1CCN(C(=O)c2ccc(C(=O)N3C[C@@H](C(=O)N[C@H]4C[C@@H]4c4ccccc4)[C@H](C(=O)N[C@H]4C[C@@H]4c4ccccc4)C3)cc2)C1` (stereo in doubt) [Compound 129, (3S,4S)-1-(4-((S)-3-(Hexadecylcarbamoyl)-pyrrolidine-1-carbonyl)benzoyl)—N^3,N^4-bis((1S,2R)-2-phenylcyclopropyl)pyrrolidine-3,4-dicarboxamide], the half-maximal effective concentration (EC50) (in general, the concentration that produces a half-maximal response) in test [1] (table of 125-132 (one lipid side chain, R and S), human THP-1 cells) is 5 nM; in the test on mouse macrophages (table of 125-132 (one lipid side chain, R and S), mouse macrophages), > 5000 nM.
Turning to `O=C(N[C@H]1C[C@@H]1c1ccccc1)[C@@H]1CN(C(=O)c2ccc(C(=O)N3C[C@@H](C(=O)N[C@H]4C[C@@H]4c4ccccc4)[C@H](C(=O)N[C@H]4C[C@@H]4c4ccccc4)C3)cc2)C[C@H]1C(=O)N[C@H]1C[C@@H]1c1ccccc1` [Compound 3, (3S,3′S,4S,4′S)-1,1′-Terephthaloylbis(N^3,N^4-bis((1S,2R)-2-phenylcyclopropyl)pyrrolidine-3,4-dicarboxamide)], in the test with mouse macrophages (Macrophage, Table 1, TNF-α release from mouse macrophages), the concentration for a half-maximal effect (EC50) worked out at 1 nM. In addition, the negative logarithm of the EC50 (pEC50) with mouse macrophages (setting [4]) and in the test on mouse macrophages (setting [3]) was 9.00 throughout.
On to `O=C(NCCc1ccc(F)cc1)[C@@H]1CN(C(=O)c2ccc(C(=O)N3C[C@@H](C(=O)NCCc4ccc(F)cc4)[C@H](C(=O)NCCc4ccc(F)cc4)C3)cc2)C[C@H]1C(=O)NCCc1ccc(F)cc1` [Compound 4, (3S,3′S,4S,4′S)-1,1′-Terephthaloylbis(N^3,N^4-bis(4-fluorophenethyl)-pyrrolidine-3,4-dicarboxamide)], for which the EC50 in test [1] (Homo sapiens, THP-1, Table 7, TNF-α release from human THP-1 cells) is 50 nM; with mouse macrophages (Macrophage, Table 7, TNF-α release from mouse macrophages), > 5000 nM. Besides, the negative-log EC50 (pEC50) in test [1] (setting [2]) was 7.30. The “fold more potent than the all racemate” value in test [1] (human THP-1 cells, single enantiomer versus its all racemate mixture) came to 3 fold.
For `O=C(N[C@H]1C[C@@H]1c1ccccc1)[C@H]1CN(C(=O)c2ccc(C(=O)N3C[C@H](C(=O)N[C@H]4C[C@@H]4c4ccccc4)[C@@H](C(=O)N[C@H]4C[C@@H]4c4ccccc4)C3)cc2)C[C@@H]1C(=O)N[C@H]1C[C@@H]1c1ccccc1` [Compound 19, (3R,3′R,4R,4′R)-1,1′-Terephthaloylbis(N^3,N^4-bis((1S,2R)-2-phenylcyclopropyl)pyrrolidine-3,4-dicarboxamide)], the pEC50 (in test [1] (setting [5]); in the test on mouse macrophages (setting [4])) was < 5.30 throughout.
Consider `O=C(N[C@@H]1C[C@H]1c1ccccc1)[C@@H]1CN(C(=O)c2ccc(C(=O)N3C[C@@H](C(=O)N[C@@H]4C[C@H]4c4ccccc4)[C@H](C(=O)N[C@@H]4C[C@H]4c4ccccc4)C3)cc2)C[C@H]1C(=O)N[C@@H]1C[C@H]1c1ccccc1` [Compound 20, (3S,3′S,4S,4′S)-1,1′-Terephthaloylbis-(N^3,N^4-bis((1R,2S)-2-phenylcyclopropyl)pyrrolidine-3,4-dicarboxamide)], for which the pEC50 (in test [1] (setting [5]); with mouse macrophages (setting [4])) was < 5.30 in each case.
`O=C(N[C@H]1C[C@@H]1c1ccccc1)[C@H]1CCN(C(=O)c2ccc(C(=O)N3C[C@@H](C(=O)N[C@H]4C[C@@H]4c4ccccc4)[C@H](C(=O)N[C@H]4C[C@@H]4c4ccccc4)C3)cc2)C1` [Compound 29, (3S,4S)—N^3,N^4-Bis((1S,2R)-2-phenyl-cyclopropyl)-1-(4-((S)-3-(((1S,2R)-2-phenyl-cyclopropyl)-carbamoyl)-pyrrolidine-1-carbonyl)-benzoyl)pyrrolidine-3,4-dicarboxamide]: in test [1] (setting [2]), the pEC50 is 6.70. Also, the “fold less active/potent than diprovocim-1 (3)” value in test [1] (human THP-1 cells) is 2000 fold.
Regarding `O=C(CCN(CCC(=O)N[C@H]1C[C@@H]1c1ccccc1)C(=O)c1ccc(C(=O)N(CCC(=O)N[C@H]2C[C@@H]2c2ccccc2)CCC(=O)N[C@H]2C[C@@H]2c2ccccc2)cc1)N[C@H]1C[C@@H]1c1ccccc1` [Compound 34, N^1,N^1,N^4,N^4-Tetrakis(3-oxo-3-(((1S,2R)-2-phenyl-cyclopropyl)amino)propyl)terephthalamide], in the test on mouse macrophages (tested up to 5 μM where stated), the “activity in stimulating TNF-α release from mouse macrophages (in words)” value was “inactive”.
With `O=C(NCCc1ccc(F)cc1)[C@H]1CN(C(=O)c2ccc(C(=O)N3C[C@H](C(=O)NCCc4ccc(F)cc4)[C@@H](C(=O)NCCc4ccc(F)cc4)C3)cc2)C[C@@H]1C(=O)NCCc1ccc(F)cc1` [Compound 98, (3R,3′R,4R,4′R)-1,1′-Terephthaloyl-bis(N^3,N^4-bis-(4-fluorophenethyl)pyrrolidine-3,4-dicarboxamide)], the negative-log EC50 (pEC50) in test [1] (Homo sapiens, THP-1, running text b169, read-out: EC50, stimulated release of TNF-α from human THP-1 cells) was < 5.30. Also, the “fold less potent than the all S enantiomer 4” value in test [1] (human THP-1 cells) was > 100 fold.
Consider `O=C(NCCc1ccc(F)cc1)[C@H]1CN(C(=O)c2ccc(C(=O)N3C[C@@H](C(=O)NCCc4ccc(F)cc4)[C@H](C(=O)NCCc4ccc(F)cc4)C3)cc2)C[C@@H]1C(=O)NCCc1ccc(F)cc1` [Compound 99, (3S,4S)-1-(4-((3R,4R)-3,4-Bis((4-fluorophen-ethyl)carbamoyl)pyrrolidine-1-carbonyl)benzoyl)—N^3,N^4-bis(4-fluorophenethyl)pyrrolidine-3,4-dicarboxamide], for which the negative-log EC50 (pEC50) in test [1] (setting [2]) is 7.15.
